Measurements from EP4647428A1, “COMPOUND CONTAINING 2-METHYL-2-(3-(PIPERIDIN-3-YL)PHENOXY)-2-METHYLPROPANAMIDE SKELETON” (Jiangsu Mingsheng Jutai Biotechnology Co. Ltd, priority 2023, dated 2024).

System: SW480
Assay: CCK8 cell inhibition test on SW480 cells
Assay type: cell-based
Details: CCK-8, SW480 cells, 24 hours incubation at 37°C, compound 20 µM to 0.15625 µM in DMEM (2% FBS)
Experimental: Cells were digested, counted, and plated in a 96-well plate (flat-bottomed, transparent) with 10,000 cells/100 µl DMEM (10% FBS) per well . • 2. Observe the cell status on the next day and start adding drugs after the cells have fully adhered to the wall; • 3. Dilute the compound in DMEM (2% FBS) in a serial dilution format to concentrations of 20 µM, 10 µM, 5 µM, 2.5 µM, 1.25 µM, 0.625 µM, 0.3125 µM, 0.15625 µM, and 0 µM (with equal volume of DMSO). • 4. Add 100 µl of the above compounds at different concentrations to each well. Repeat for each concentration gradient in duplicate. Leave three blank wells (add only DMEM 2% FBS culture medium without cells) . • 5. Incubate at 37°C for 24 hours . • 6. Add 10 µl of CCK-8 Enhanced Solution to each well. Since the amount of CCK-8 added to each well is relatively small, there may be errors due to the reagent sticking to the well wall. It is recommended to gently tap the culture plate after adding the reagent to help mix it. • 7. Incubate in the incubator for 0.5-4 hours: The amount of formazan formed varies depending on the cell type. In most cases, incubation for 1 hour is sufficient. If color development is insufficient, continue incubation to confirm optimal conditions. • 8. Measure the absorbance at 450nm and 600nm (excluding interference from the reagent background color and the absorbance of the well plate itself); • 9. The final absorbance value is OD450nm-OD600nm, and the inhibition rate is calculated; Inhibition rate = [(Ac−As)/(Ac−Ab)] × 100% [formula] • As: absorbance of the experimental well (culture medium containing cells, CCK-8, and drug to be tested); • Ac: absorbance of control wells (culture medium containing cells, CCK-8, and no test drug); • Ab: absorbance of blank wells (culture medium without cells, test drugs, or CCK-8).

Compound | IC50 (Homo sapiens) | also measured
CC(C)(Oc1cccc(C2CCCN(S(=O)(=O)c3cccc(-c4cn[nH]c4)c3)C2)c1)C(=O)NCC(=O)N1CCCC1CN (centres unmarked) [Compound 115-023, 2-(3-(1-((3-(1H-pyrazol-4-yl)phenyl)sulfonyl)piperidin-3-yl)phenoxy)-N-(2-(2-(aminomethyl)pyrrolidin-1-yl)-2-oxoethyl)-2-methylpropanamide] | 30.5 µM | –
N-(2-((S)-2-(2-aminoethyl)pyrrolidin-1-yl)-2-oxoethyl)-2-(3-(1-((4'-isopropyl-[1,1'-biphenyl]-3-yl)sulf onylpiperidin-3-yl)phenoxy)-2-methylpropanamide) [Compound 115-014] | – | IC50: 52.9 µM
CC(C)n1cc(-c2cccc(S(=O)(=O)N3CCCC(c4cccc(OC(C)(C)C(=O)NCC(=O)N5CCCC5CN)c4)C3)c2)cn1 (centres unmarked) [Compound 115-022, N-(2-(2-(Aminomethyl)pyrrolidin-1-yl)-2-oxoethyl)-2-(3-(1-((3-(1-isopropyl-1H-pyrazol-4-yl)phenyl)sulfonyl)piperidin-3-yl)phenoxy)-2-methylpropanamide] | 9.71 µM | –
CC(C)c1ccc(-c2cccc(S(=O)(=O)N3CCCC(c4cccc(OC(C)(C)C(=O)NS(=O)(=O)N5CCC[C@@H]5CN)c4)C3)c2)cc1 (stereo partly drawn) [Compound 115-017, N-(2-(R)-(Aminomethyl)pyrrolidin-1-yl)sulfonyl)-2-(3-(1-((4'-isopropyl-[1,1'-biphenyl]-3-yl)sulfonylpiperidin-3-yl)phenoxy)-2-methylpropionamide] | 10.6 µM | –
CC(C)c1ccc(-c2cncc(S(=O)(=O)N3CCCC(c4cccc(OC(C)(C)C(=O)NCC(=O)N5CCCC5CN)c4)C3)c2)cc1 (centres unmarked) [Compound 115-055, N-(2-(2-(Aminomethyl)pyrrolidin-1-yl)-2-oxoethyl)-2-(3-(1-((5-(4-isopropylphenyl)pyridin-3-yl)sulfonyl)piperidin-3-yl)phenoxy)-2-methylpropanamide] | 4.06 µM | –
CC(C)(Oc1cccc(C2CCCN(C(=O)c3ccc(-c4cn[nH]c4)cc3)C2)c1)C(=O)NCC(=O)N1CCCC1CN (centres unmarked) [Compound 115-027, 2-(3-(1-(4-(1H-pyrazol-4-yl)benzoyl)piperidin-3-yl)phenoxy)-N-(2-(2-(aminomethyl)pyrrolidin-1-yl)-2-oxoethyl)-2-methylpropanamide] | 23.1 µM | –
CC(C)c1ccc(-c2ccc(C(=O)N3CCCC(c4cccc(OC(C)(C)C(=O)NCC(=O)N5CCCC5CN)c4)C3)cc2)cc1 (centres unmarked) [Compound 115-030] | 3.12 to 6.25 µM | –
CC(C)(Oc1cccc(C2CCCN(C(=O)NCCc3ccc(-c4cn[nH]c4)cc3)C2)c1)C(=O)NCC(=O)N1CCCC1CN (centres unmarked) [Compound 115-021, N-(4-(1H-pyrazol-4-yl)phenethyl)-3-(3-((1-((2-(2-(aminomethyl)pyrrolidin-1-yl)-2-oxoethyl)amino)-2-methyl-1-oxopropanoyl)oxy)phenyl)piperidine-1-carboxamide] | – | SW480 IC50(µM): Inactive
CC(C)c1ccc(-c2cccc(S(=O)(=O)N3CCC=C(c4cccc(OC(C)(C)C(=O)NCC(=O)N5CCCC5CN)c4)C3)c2)cc1 (centres unmarked) [Compound 115-049, N-(2-(2-(Aminomethyl)pyrrolidin-1-yl)-2-oxoethyl)-2-(3-(1-((4'-isopropyl-[1,1'-biphenyl]-3-yl)sulfonyl)-1,2,5,6-tetrahydropyridin-3-yl)phenoxy)-2-methylpropanamide] | ≤ 2.65 µM | –
CC(C)c1ccc(-c2cccc(S(=O)(=O)N3CCCC(c4cccc(OC(C)(C)C(=O)NCC(=O)N5CCC[C@@H]5CN)c4)C3)c2)cc1 (some centres unmarked) [Compound 115-011] | 3.12 to 6.25 µM | –
CC(C)c1ccc(-c2cccc(S(=O)(=O)N3CCCC(c4cccc(OC(C)(C)C(=O)NCC(=O)N5CC[C@H](CN)C5)c4)C3)c2)cc1 (some centres unmarked) [Compound 115-013] | 3.12 µM | –
CC(C)c1ccc(-c2cccc(S(=O)(=O)N3CCCC(c4cccc(OC(C)(C)C(=O)NS(=O)(=O)c5ccc(C(F)(F)F)cc5)c4)C3)c2)cc1 (centres unmarked) [Compound 115, reference compound] | 2.81 µM | –
CC(C)(Oc1cccc(C2CCCN(C(=O)CCc3ccc(-c4cn[nH]c4)cc3)C2)c1)C(=O)NCC(=O)N1CCCC1CN (centres unmarked) [Compound 115-029, 2-(3-(1-(3-(4-(1H-pyrazol-4-yl)phenyl)propionyl)piperidin-3-yl)phenoxy)-N-(2-(2-(aminomethyl)pyrrolidin-1-yl)-2-oxoethyl)-2-methylpropionamide] | 20.8 µM | –
CC(C)(Oc1cccc(C2CCCN(C(=O)Cc3ccc(-c4cn[nH]c4)cc3)C2)c1)C(=O)NCC(=O)N1CCCC1CN (centres unmarked) [Compound 115-028, 2-(3-(1-(2-(4-(1H-pyrazol-4-yl)phenyl)acetyl)piperidin-3-yl)phenoxy)-N-(2-(2-(aminomethyl)pyrrolidin-1-yl)-2-oxoethyl)-2-methylpropanamide] | 15.7 µM | –
CC(C)(Oc1cccc(C2CCCN(C(=O)NCc3ccc(-c4cn[nH]c4)cc3)C2)c1)C(=O)NCC(=O)N1CCCC1CN (centres unmarked) [Compound 115-020, N-(4-(1H-pyrazol-4-yl)benzyl)-3-(3-((1-((2-(2-(aminomethyl)pyrrolidin-1-yl)-2-oxoethyl)amino)-2-methyl-1-oxopropanoyl)oxy)phenyl)piperidine-1-carboxamide] | – | SW480 IC50(µM): Inactive
CC(C)c1ccc(-c2cccc(S(=O)(=O)N3CCCC(c4cccc(OC(C)(C)C(=O)NCC(=O)N5CCCC5CN)c4)C3)n2)cc1 (centres unmarked) [Compound 115-052, N-(2-(2-(aminomethyl)pyrrolidin-1-yl)-2-oxoethyl)-2-(3-(1-((6-(4-isopropylphenyl)pyridin-2-yl)sulfonyl)piperidin-3-yl)phenoxy)-2-methylpropanamide] | ≤ 2.74 µM | –
CC(C)(Oc1cccc(C2CCCN(S(=O)(=O)c3ccc(-c4cn[nH]c4)cc3)C2)c1)C(=O)NS(=O)(=O)c1ccc(C(F)(F)F)cc1 (centres unmarked) [Compound 115-026, 2-(3-(1-((4-(1H-pyrazol-4-yl)phenyl)sulfonyl)piperidin-3-yl)phenoxy)-2-methyl-N-((4-(trifluoromethyl)phenyl)sulfonyl)propionamide] | – | SW480 IC50(µM): Inactive
CC(C)c1ccc(-c2ccc(CC(=O)N3CCCC(c4cccc(OC(C)(C)C(=O)NCC(=O)N5CCCC5CN)c4)C3)cc2)cc1 (centres unmarked) [Compound 115-031, N-(2-(2-(Aminomethyl)pyrrolidin-1-yl)-2-oxoethyl)-2-(3-(1-(2-(4'-isopropyl-[1,1'-biphenyl]-4-yl)acetyl)piperidin-3-yl)phenoxy)-2-methylpropanamide] | 6.99 µM | –
CC(C)n1cc(-c2cccc(S(=O)(=O)N3CCCC(c4cccc(OC(C)(C)C(=O)NS(=O)(=O)c5ccc(C(F)(F)F)cc5)c4)C3)c2)cn1 (centres unmarked) [Compound 115-024, 2-(3-(1-((3-(1-isopropyl-1H-pyrazol-4-yl)phenyl)sulfonyl)piperidin-3-yl)phenoxy)-2-methyl-N-((4-(trifluoromethyl)phenyl)sulfonyl)propionamide] | 11.1 µM | –
CC(C)(Oc1cccc(C2CCCN(S(=O)(=O)c3cccc(-c4cn[nH]c4)c3)C2)c1)C(=O)NS(=O)(=O)c1ccc(C(F)(F)F)cc1 (centres unmarked) [Compound 115-025, 2-(3-(1-((3-(1H-pyrazol-4-yl)phenyl)sulfonyl)piperidin-3-yl)phenoxy)-2-methyl-N-((4-(trifluoromethyl)phenyl)sulfonyl)propionamide] | – | SW480 IC50(µM): Inactive
